Patent US10344330B2, “Glatiramer acetate response biomarker mRNA potency assay” (Mylan Inc., priority 2013, dated 2019)

Tested on: mouse IL-4 mRNA in primary LN cells
Test: Validation: mouse IL-4 mRNA by real-time PCR in LN cells of GA-immunized SJL/J mice (Example IV)
Format: cell-based
Details: for induction of IL-4 mRNA: 20 μg/mL GA, 6 hours; for IL-4 mRNA Fold Change: normalized to GAPDH
Description: Three experiments were conducted using one batch of GA (Mylan GMA). The primary LN cells were stimulated by incubation with 6 concentrations (0.3 to 20 μg/mL) of the GA for 6 hours at 37° C. Total RNA was isolated from LN cells stimulated with GA or controls. cDNA was synthesized from the RNA and the mRNA levels of seven mouse cytokines, IL-2, IL-4, IL-5, IL-10, IL-13, interferon (IFN)-γ and tumor necrosis factor (TNF)-α, were quantitatively measured by a real-time PCR method.
Female SJL/J mice at 8-9 weeks of age were immunized by injection into four footpads using a 1 mL syringe with a 27-G, ½-inch needle. Each mouse received a total injection volume of 0.1 mL of GMA emulsified in CFA (about 10 μL into each of the front footpads and 40 μL into each of the hind footpads). Animals were immunized on Day 0. After injection, animals were placed back in their cages and housed ≤6 animals per cage.
Immunized animals were sacrificed by cervical dislocation on Day 10 following immunization. […] After centrifugation at about 200×g for 10 minutes at 4° C., the cell pellet was re-suspended in 40 mL of DCCM-1 medium for cell counting. A Trypan blue exclusion method was used to determine the cell density of viable cells in the suspension. After cell counting, the LN cells were suspended in enriched DCCM-1 medium at density of 7.5×10^6 cells/mL. LN cells (0.12 mL) were plated into each well of 96-well tissue culture plates.
Dilutions of GA (Mylan GMA) were prepared using enriched DCCM-1 medium as the diluent. GA dilutions (0.12 mL) were added in the assigned wells of 96-well tissue culture plates. The same volume of LN cells (0.12 mL) isolated from immunized animals was added to the assigned wells. A positive control and a negative control were always performed in the same assay by treating LN cells with 2.5 μg/mL ConA and 10 μg/mL MBP, respectively. The LN cells with mock stimulation protocols (enriched DCCM-1 medium) were used to monitor the background mRNA level of a cytokine. The plates were incubated at 37° C. in a humidified 5% CO2 incubator for 6 hr.
At the end of incubation time, culture medium from stimulated cells was removed by aspiration and the cells were lysed using Qiagen or Promega lysis buffer. The lysate was transferred to an RNeasy Mini column (Qiagen) or wells of the SV 96 Binding Plate (Promega) for RNA isolation and cDNA synthesis. All tested samples were run in triplicate.
The SV 96 Total RNA Isolation System (Promega; Cat. No. Z3505) was used for total RNA isolation. Assay procedures were carried out according to each manufacturer's protocol. RNA samples were stored at −70° C. until use. […] The assay procedure was carried out according to the manufacturer's protocol.
The plate was centrifuged at 2000 rpm for 2 minutes at 4° C. to spin down the contents and eliminate air bubbles. Samples were prepared and run in a 96-well plate using a Life Technologies Real-Time PCR system (previously Applied Biosystems; Model No. 7500) according to the manufacturer's recommendation. The mix for the reference gene was prepared in the same way using the reference gene primer.
A relative quantitation method was used to analyze changes in mIL-2, mIL-4, mIL-5, mIL-10, mIL-13, mIFN-γ and TNF-α expression in GA treated samples relative to the untreated control (Enriched DCCM-1 treated) samples using the following program:
Levels of mouse cytokine amplicons were normalized to an internal probe level (GAPDH) from the same samples. The following equations were used to calculate the relative increase in response to GA stimulation compared to the control sample (Enriched DCCM1 sample): […]

Molecule: L-glutamic acid polymer with L-alanine, L-lysine and L-tyrosine, acetate (salt) [GA]
- induction of IL-4 mRNA (SJL/J, Exp 1): 41.3 fold
- induction of IL-4 mRNA (SJL/J, Exp 2): 11.8 fold
- induction of IL-4 mRNA (SJL/J, Exp 3): 27.6 fold
- induction of IL-4 mRNA (in words) (SJL/J, different concentrations of GA vs unstimulated LN cells): robust induction

Molecule: Concanavalin A [ConA, reference compound]
- IL-4 mRNA Fold Change (Experiment 1, 2.5 μg/mL): 148.6 fold
- IL-4 mRNA Fold Change (Experiment 2, 2.5 μg/mL): 21.0 fold
- IL-4 mRNA Fold Change (Experiment 3, 2.5 μg/mL): 53.8 fold

B1: MBP: myelin basic protein, a negative control (protein, UniProt P02686 1-304, looked up)
Myelin basic protein: MGNHAGKRELNAEKASTNSETNRGESEKKRNLGELSRTTSEDNEVFGEADANQNNGTSSQDTAVTDSKRTADPKNAWQDAHPADPGSRPHLIRLFSRDAPGREDNTFKDRPSESDELQTIQEDSAATSESLDVMASQKRPSQRHGSKYLATASTMDHARHGFLPRHRDTGILDSIGRFFGGDRGAPKRGSGKDSHHPARTAHYGSLPQKSHGRTQDENPVVHFFKNIVTPRTPPPSQGKGRGLSLSRFSWGAEGQRPGFGYGGRASDYKSAHKGFKGVDAQGTLSKIFKLGGRDSRSGSPMARR
- IL-4 mRNA Fold Change (Experiment 1, 10 μg/mL): 2.7 fold
- IL-4 mRNA Fold Change (Experiment 2, 10 μg/mL): 0.8 fold
- IL-4 mRNA Fold Change (Experiment 3, 10 μg/mL): 1.1 fold
